Assay results from patent US20260262643A1, “HERBICIDAL BENZOXAZINES” (FMC CORPORATION, priority 2022, published 2026).

Legend:
barnyardgrass [1] = test: Test C preemergence; format: in vivo, Echinochloa crusgalli; conditions: 0 to 100 scale (0 no effect, 100 complete control); for Barnyardgrass plant response rating: 125 g ai/ha, preemergence; for Plant response rating, Barnyardgrass: Preemergence, 500 g ai/ha, visual rating after 10 days
Method in brief: (§1)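 Soil-applied (pre) and foliar (post, 1–2 leaf, 2–10 cm) sprays; surfactant-containing non-phytotoxic solvent vehicle; loam/sand substrate. Readout: visual % control at 10 d, greenhouse, versus untreated.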

blackgrass [2] = test: Test C preemergence; format: in vivo, Alopecurus myosuroides; conditions: 0 to 100 scale (0 no effect, 100 complete control); for Plant response rating, Blackgrass: Preemergence, 500 g ai/ha, visual rating after 10 days; for Blackgrass plant response rating: Test C, preemergence, 125 g ai/ha
Method in brief: as §1

corn [3] = test: Test C preemergence; format: in vivo, Zea mays; conditions: 0 to 100 scale (0 no effect, 100 complete control); for Plant response rating, Corn: Preemergence, 500 g ai/ha, visual rating after 10 days; for Corn plant response rating: Test C, preemergence, 125 g ai/ha
Method in brief: as §1

green foxtail [4] = test: Test C preemergence; format: in vivo, Setaria viridis; conditions: 0 to 100 scale (0 no effect, 100 complete control); for Plant response rating, Foxtail, Green: Preemergence, 500 g ai/ha, visual rating after 10 days; for Foxtail, Green plant response rating: Test C, preemergence, 125 g ai/ha
Method in brief: as §1

kochia [5] = test: Test C preemergence; format: in vivo, Bassia scoparia; conditions: 0 to 100 scale (0 no effect, 100 complete control); for Plant response rating, Kochia: Preemergence, 500 g ai/ha, visual rating after 10 days; for Kochia plant response rating: Test C, preemergence, 125 g ai/ha
Method in brief: as §1

oat, wild [6] = test: Test C preemergence; format: in vivo, Avena fatua; conditions: 0 to 100 scale (0 no effect, 100 complete control); for Plant response rating, Oat, Wild: Preemergence, 500 g ai/ha, visual rating after 10 days; for Oat, Wild plant response rating: Test C, preemergence, 125 g ai/ha
Method in brief: as §1

pigweed, palmer [7] = test: Test C preemergence; format: in vivo, Amaranthus palmeri; conditions: 0 to 100 scale (0 no effect, 100 complete control); for Plant response rating, Pigweed, Palmer: Preemergence, 500 g ai/ha, visual rating after 10 days; for Pigweed, Palmer plant response rating: Test C, preemergence, 125 g ai/ha
Method in brief: as §1

ragweed [8] = test: Test C preemergence; format: in vivo, Ambrosia artemisiifolia; conditions: 0 to 100 scale (0 no effect, 100 complete control); for Plant response rating, Ragweed: Preemergence, 500 g ai/ha, visual rating after 10 days; for Ragweed plant response rating: Test C, preemergence, 125 g ai/ha
Method in brief: as §1

ryegrass, Italian [9] = test: Test C preemergence; format: in vivo, Lolium multiflorum; conditions: 0 to 100 scale (0 no effect, 100 complete control); for Plant response rating, Ryegrass, Italian: Preemergence, 500 g ai/ha, visual rating after 10 days; for Ryegrass, Italian plant response rating: Test C, preemergence, 125 g ai/ha
Method in brief: as §1

soybean [10] = test: Test C preemergence; format: in vivo, Glycine max; conditions: 0 to 100 scale (0 no effect, 100 complete control); for Plant response rating, Soybean: Preemergence, 500 g ai/ha, visual rating after 10 days; for Soybean plant response rating: Test C, preemergence, 125 g ai/ha
Method in brief: as §1

wheat [11] = test: Test C preemergence; format: in vivo, Triticum aestivum; conditions: 0 to 100 scale (0 no effect, 100 complete control); for Plant response rating, Wheat: Preemergence, 500 g ai/ha, visual rating after 10 days; for Wheat plant response rating: Test C, preemergence, 125 g ai/ha
Method in brief: as §1

barnyardgrass [12] = test: Test C postemergence; format: in vivo, Echinochloa crusgalli; conditions: 10 days
Method in brief: as §1

blackgrass [13] = test: Test C postemergence; format: in vivo, Alopecurus myosuroides; conditions: 10 days
Method in brief: as §1

corn [14] = test: Test C postemergence; format: in vivo, Zea mays; conditions: 10 days
Method in brief: as §1

green foxtail [15] = test: Test C postemergence; format: in vivo, Setaria viridis; conditions: 10 days
Method in brief: as §1

kochia [16] = test: Test C postemergence; format: in vivo, Bassia scoparia; conditions: 10 days
Method in brief: as §1

oat, wild [17] = test: Test C postemergence; format: in vivo, Avena fatua; conditions: 10 days
Method in brief: as §1

pigweed, palmer [18] = test: Test C postemergence; format: in vivo, Amaranthus palmeri; conditions: 10 days
Method in brief: as §1

ragweed [19] = test: Test C postemergence; format: in vivo, Ambrosia artemisiifolia; conditions: 10 days
Method in brief: as §1

ryegrass, Italian [20] = test: Test C postemergence; format: in vivo, Lolium multiflorum; conditions: 10 days
Method in brief: as §1

soybean [21] = test: Test C postemergence; format: in vivo, Glycine max; conditions: 10 days
Method in brief: as §1

wheat [22] = test: Test C postemergence; format: in vivo, Triticum aestivum; conditions: 10 days
Method in brief: as §1

galium = test: Test C postemergence; format: in vivo, Galium aparine; conditions: 10 days
Method in brief: as §1

horseweed = test: Test C postemergence; format: in vivo, Erigeron canadensis; conditions: 10 days
Method in brief: as §1

barnyardgrass [23] = test: Test D flooded paddy test; format: in vivo, Echinochloa crus-galli; conditions: 250 g ai/ha, applied to paddy water, visual rating after 13 to 14 days, scale 0 to 100 (0 no effect, 100 complete control)
Method in brief: (§2)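 Plants grown to the 2-leaf stage; pots flooded to 3 cm above soil at treatment and held at that depth throughout. Test compounds applied directly to the paddy water. After 13 to 14 days in a greenhouse, response was rated visually versus controls on a 0 (no effect) to 100 (complete control) scale.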

ducksalad = test: Test D flooded paddy test; format: in vivo, Heteranthera limosa; conditions: 250 g ai/ha, applied to paddy water, visual rating after 13 to 14 days, scale 0 to 100 (0 no effect, 100 complete control)
Method in brief: as §2

rice = test: Test D flooded paddy test; format: in vivo, Oryza sativa; conditions: 250 g ai/ha, applied to paddy water, visual rating after 13 to 14 days, scale 0 to 100 (0 no effect, 100 complete control)
Method in brief: as §2

sedge, umbrella = test: Test D flooded paddy test; format: in vivo, Cyperus difformis; conditions: 250 g ai/ha, applied to paddy water, visual rating after 13 to 14 days, scale 0 to 100 (0 no effect, 100 complete control)
Method in brief: as §2

[24] = 125 g ai/ha, postemergence, 0 to 100 scale, 0 no effect, 100 complete control
[25] = Postemergence, 500 g ai/ha, visual 0 to 100 scale (0 no effect, 100 complete control)

CC(C)c1ncn(-c2cc3c(c(C(=O)N4C[C@H](C)Oc5c(Cl)cccc54)c2)OCCCO3)n1 [Compound 158]
30: Plant response rating, Oat, Wild (oat, wild [17]; [24]) | Plant response rating, Wheat (wheat [22]; [24])
100: Plant response rating, Foxtail, Green (green foxtail [4]) | Foxtail, Green plant response rating (green foxtail [4]) | Plant response rating, Pigweed, Palmer (pigweed, palmer [7]) | Pigweed, Palmer plant response rating (pigweed, palmer [7]) | Plant response rating, Pigweed, Palmer (pigweed, palmer [18]; [25]) | Plant response rating, Soybean (soybean [21]; [24]) | Plant response rating, Soybean (soybean [21]; [25]) | Plant response rating, Galium (galium; [24])
10: Wheat plant response rating (wheat [11])
40: Blackgrass plant response rating (blackgrass [2]) | Plant response rating, Wheat (wheat [11]) | Plant response rating, Barnyardgrass (barnyardgrass [12]; [24]) | Plant response rating, Blackgrass (blackgrass [13]; [24]) | Plant response rating, Ryegrass, Italian (ryegrass, Italian [20]; [24])
70: Kochia plant response rating (kochia [5]) | Plant response rating, Barnyardgrass (barnyardgrass [12]; [25]) | Plant response rating, Kochia (kochia [16]; [24]) | Plant response rating, Ryegrass, Italian (ryegrass, Italian [20]; [25]) | Plant response rating, Wheat (wheat [22]; [25])
25: Plant response rating, Barnyardgrass (Flood) (barnyardgrass [23])
65: Plant response rating, Ducksalad (Flood) (ducksalad)
75: Plant response rating, Sedge, Umbrella (Flood) (sedge, umbrella)
90: Plant response rating, Barnyardgrass (barnyardgrass [1]) | Plant response rating, Kochia (kochia [5]) | Plant response rating, Ragweed (ragweed [8]) | Plant response rating, Blackgrass (blackgrass [13]; [25]) | Plant response rating, Foxtail, Green (green foxtail [15]; [25]) | Plant response rating, Kochia (kochia [16]; [25]) | Plant response rating, Ragweed (ragweed [19]; [24]) | Plant response rating, Galium (galium; [25])
50: Soybean plant response rating (soybean [10]) | Plant response rating, Corn (corn [14]; [24])
60: Barnyardgrass plant response rating (barnyardgrass [1]) | Plant response rating, Blackgrass (blackgrass [2]) | Plant response rating, Corn (corn [14]; [25]) | Plant response rating, Foxtail, Green (green foxtail [15]; [24]) | Plant response rating, Oat, Wild (oat, wild [17]; [25])
0: Corn plant response rating (corn [3]) | Plant response rating, Rice (Flood) (rice)
80: Plant response rating, Oat, Wild (oat, wild [6]) | Ragweed plant response rating (ragweed [8]) | Plant response rating, Ryegrass, Italian (ryegrass, Italian [9]) | Ryegrass, Italian plant response rating (ryegrass, Italian [9]) | Plant response rating, Soybean (soybean [10]) | Plant response rating, Pigweed, Palmer (pigweed, palmer [18]; [24]) | Plant response rating, Ragweed (ragweed [19]; [25])
20: Plant response rating, Corn (corn [3]) | Oat, Wild plant response rating (oat, wild [6]) | Plant response rating, Horseweed (horseweed; [24]) | Plant response rating, Horseweed (horseweed; [25])

Cc1ccc(-n2cnc(C(C)C)n2)cc1C(=O)N1C[C@H](C)Oc2c(F)cccc21 [Compound 242]
50: Plant response rating, Horseweed (horseweed; [24])
98: Plant response rating, Sedge, Umbrella (Flood) (sedge, umbrella)
15: Plant response rating, Rice (Flood) (rice)
30: Corn plant response rating (corn [3]) | Plant response rating, Kochia (kochia [16]; [24])
0: Ragweed plant response rating (ragweed [8])
95: Plant response rating, Ducksalad (Flood) (ducksalad)
55: Plant response rating, Barnyardgrass (Flood) (barnyardgrass [23])
60: Wheat plant response rating (wheat [11]) | Plant response rating, Corn (corn [14]; [24]) | Plant response rating, Ragweed (ragweed [19]; [24])
70: Plant response rating, Corn (corn [3])
100: Plant response rating, Barnyardgrass (barnyardgrass [1]) | Barnyardgrass plant response rating (barnyardgrass [1]; Test C) | Plant response rating, Foxtail, Green (green foxtail [4]) | Foxtail, Green plant response rating (green foxtail [4]) | Plant response rating, Kochia (kochia [5]) | Plant response rating, Pigweed, Palmer (pigweed, palmer [7]) | Pigweed, Palmer plant response rating (pigweed, palmer [7]) | Plant response rating, Ragweed (ragweed [8]) | Plant response rating, Ryegrass, Italian (ryegrass, Italian [9]) | Ryegrass, Italian plant response rating (ryegrass, Italian [9]) | Plant response rating, Soybean (soybean [10]) | Plant response rating, Barnyardgrass (barnyardgrass [12]; [25]) | Plant response rating, Blackgrass (blackgrass [13]; [25]) | Plant response rating, Ryegrass, Italian (ryegrass, Italian [20]; [25]) | Plant response rating, Soybean (soybean [21]; [24]) | Plant response rating, Soybean (soybean [21]; [25]) | Plant response rating, Galium (galium; [24]) | Plant response rating, Galium (galium; [25])
80: Plant response rating, Blackgrass (blackgrass [13]; [24]) | Plant response rating, Foxtail, Green (green foxtail [15]; [24]) | Plant response rating, Kochia (kochia [16]; [25]) | Plant response rating, Oat, Wild (oat, wild [17]; [24]) | Plant response rating, Pigweed, Palmer (pigweed, palmer [18]; [24]) | Plant response rating, Wheat (wheat [22]; [24]) | Plant response rating, Horseweed (horseweed; [25])
90: Plant response rating, Blackgrass (blackgrass [2]) | Blackgrass plant response rating (blackgrass [2]) | Kochia plant response rating (kochia [5]) | Plant response rating, Oat, Wild (oat, wild [6]) | Oat, Wild plant response rating (oat, wild [6]) | Soybean plant response rating (soybean [10]) | Plant response rating, Wheat (wheat [11]) | Plant response rating, Barnyardgrass (barnyardgrass [12]; [24]) | Plant response rating, Corn (corn [14]; [25]) | Plant response rating, Foxtail, Green (green foxtail [15]; [25]) | Plant response rating, Oat, Wild (oat, wild [17]; [25]) | Plant response rating, Pigweed, Palmer (pigweed, palmer [18]; [25]) | Plant response rating, Ragweed (ragweed [19]; [25]) | Plant response rating, Ryegrass, Italian (ryegrass, Italian [20]; [24]) | Plant response rating, Wheat (wheat [22]; [25])
